Like-named read-outs stand apart in the source and are kept apart here.
Experiments:
[1] = biological target: T1, cyclooxygenase (human platelets microsomes) (Homo sapiens, UniProt P23219); assay: Cycloxygenase inhibition in human platelets microsomes; type: biochemical; conditions: cyclooxygenase (PGE2/TxB2), pH 7.9, 37° C.
T1 construct: human platelets microsomes; from tissue; host or cells: human platelet microsomes (microsomal powder)
Description: The enzymatic assay was carried out in silanized glassware according to the procedure of P. Ho, P. Walters and H, Sullivan (Prostaglandins 12, 951 1976). The reaction mixture containing 50 mM Tris HCl buffer, pH 7.9, 5mM 2-Tryptophan, […] methemoglobin, 0.2 mg of microsomal powder, and the test compound in a total volume of 0.2 ml was incubated at 37° C. for 5 minutes before the addition of 10 μl of 20 μM^14 C arachidonic acid (0.08 μCI). After 5 minute incubation, the reaction was terminated by the addition of 10 μl of 1M citric acid.
The mixture was extracted four times with 0.5 ml of anhydrous diethyl ether and dried with sodium sulphate. The residue was resuspended in approximately 40 μl of ether and submitted to chromatography on silica gel plates. The elution system consisted of diethyl ether/methanol/acetic acid (90:1:2). The RF values were measured relative to arachidonic acid. Thin layer chromatography plates (TLC) were exposed on LKB ultrafilm for about 24 hours. Partial identification of the spots were carried out by running standards (PGA2, PGB2, PGE2, PGF2c, PXB2, arachidonic acid) in the same solvent system. Quantitative results were obtained by scanning the developed film with a transmission densitometer (EC Apparatus 910) interfaced with a Hewlett Packard 3390A integrator.
The activity of the substances of the cyclooxygenase is quantified by the 2 spots corresponding to PGE2 and TxB2 (ratio PGE2 /TxB2).

soybean lipoxygenase = biological target: T2, soybean lipoxygenase (Glycine max, UniProt P08170); assay: In vitro screening of compounds as potential inhibitors of soybean lipoxygenase (spectrophotometric assay, 15-HPETE at 236 nm); type: biochemical; conditions: pH 9.00, 10^-4 M arachidonic acid, 90 min, room temperature
T2 sequence (P08170 1-839): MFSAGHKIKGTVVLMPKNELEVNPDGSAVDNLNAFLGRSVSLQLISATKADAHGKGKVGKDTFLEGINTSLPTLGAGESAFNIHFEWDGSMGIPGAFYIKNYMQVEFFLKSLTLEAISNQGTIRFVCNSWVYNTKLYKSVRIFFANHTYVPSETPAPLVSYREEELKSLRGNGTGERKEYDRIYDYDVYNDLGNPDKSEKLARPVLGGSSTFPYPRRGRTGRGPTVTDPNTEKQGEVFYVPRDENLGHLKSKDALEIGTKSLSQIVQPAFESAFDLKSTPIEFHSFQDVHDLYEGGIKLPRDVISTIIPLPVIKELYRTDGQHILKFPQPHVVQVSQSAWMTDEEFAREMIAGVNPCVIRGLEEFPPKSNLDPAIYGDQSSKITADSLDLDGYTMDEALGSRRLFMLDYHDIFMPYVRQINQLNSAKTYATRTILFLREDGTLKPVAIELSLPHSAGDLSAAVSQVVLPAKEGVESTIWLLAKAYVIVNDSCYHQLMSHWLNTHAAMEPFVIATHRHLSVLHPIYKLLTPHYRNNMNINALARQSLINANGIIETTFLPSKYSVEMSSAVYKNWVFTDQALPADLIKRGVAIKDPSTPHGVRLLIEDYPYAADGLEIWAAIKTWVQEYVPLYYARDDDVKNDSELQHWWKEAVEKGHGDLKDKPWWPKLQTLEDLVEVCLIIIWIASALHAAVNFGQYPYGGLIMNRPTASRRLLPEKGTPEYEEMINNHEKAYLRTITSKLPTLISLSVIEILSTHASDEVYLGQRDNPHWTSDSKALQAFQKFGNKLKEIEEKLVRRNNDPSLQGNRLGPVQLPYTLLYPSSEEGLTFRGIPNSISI
Description: A spectrophotometric method has been developed to determine the enzyme activity according to Corey E.J. et al. (J. Amer. Chem. Soc, 104, 1750-1752; 1982). In a final volume of 1.8 ml was mixed 0.2 M of aerated Borax buffer pH =9.00 with 500 units of soybean lipoxygenase. When inhibitors were tested, they were added in 0.6 ml at final concentrations ranging from 10^-3 M to 10^-8 M followed by a preincubation of 10 minutes at room temperature. The reaction was initiated by 10^-4 M arachidonic acid. Following incubation at room temperature for 90 minutes, 15-HPETE was determined by absorbance measurements at 236 nm.
This method was validated with known inhibitors of lipoxygenase. For each test substance a control was included with boiled lipoxygenase in order to take into account any absorption of the compound at the wavelength used.

[2] = biological target: T3, 15-lipoxygenase (human leucocytes) (Homo sapiens, UniProt P16050); assay: Experiment No. 2: inhibition of 15-lipoxygenase in human leucocytes stimulated by ionophore and arachidonic acid (15-HETE); type: cell-based; conditions: Experiment No. 2, 15-HETE, ionophore A23187 and arachidonic acid
T3 construct: endogenous in cells; host or cells: human (polynuclear) leucocytes
T3 sequence (P16050 1-662): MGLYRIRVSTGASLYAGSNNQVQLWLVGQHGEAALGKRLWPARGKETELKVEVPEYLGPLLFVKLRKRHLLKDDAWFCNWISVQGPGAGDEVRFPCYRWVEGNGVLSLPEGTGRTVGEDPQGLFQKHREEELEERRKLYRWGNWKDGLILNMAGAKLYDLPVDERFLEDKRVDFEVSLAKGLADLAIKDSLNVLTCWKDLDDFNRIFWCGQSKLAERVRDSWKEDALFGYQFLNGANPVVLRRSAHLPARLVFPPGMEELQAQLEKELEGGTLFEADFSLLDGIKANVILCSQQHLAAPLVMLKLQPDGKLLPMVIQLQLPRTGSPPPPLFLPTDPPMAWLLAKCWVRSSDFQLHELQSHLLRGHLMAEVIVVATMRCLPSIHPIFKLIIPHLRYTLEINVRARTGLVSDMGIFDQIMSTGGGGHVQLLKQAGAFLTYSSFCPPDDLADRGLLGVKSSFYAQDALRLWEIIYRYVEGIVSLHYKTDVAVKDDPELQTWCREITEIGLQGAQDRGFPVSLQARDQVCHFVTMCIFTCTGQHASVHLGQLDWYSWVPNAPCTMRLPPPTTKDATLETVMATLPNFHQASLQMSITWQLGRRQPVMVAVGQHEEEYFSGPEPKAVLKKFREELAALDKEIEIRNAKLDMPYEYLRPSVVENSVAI
Description: (§1) (b) Inhibition on 5-, 12- and 15- lipoxygenases human polynuclear
(§2) Protocol for experiment No. 2:
(§3) 2. Stimulation with 10 μg of arachidonic acid and 1 μg of ionophore (A23187)/ml for 4 minutes.
(§4) 3. Stopping of the incubation with 1 volume of methanol and analysis by RP-HPLC.
(§5) 4. Measurement of the height of the peaks and comparison with the internal standard (PGB2).
(§6) It will be noted that in experiment No. 1, the leucocytes have been stimulated by the ionophore alone whereas in experiment No. 2, the cells have been stimulated with ionophore and arachidonic acid.

[3] = biological target: T4, 5-lipoxygenase (human leucocytes) (Homo sapiens, UniProt P09917); assay: Experiment No. 2: inhibition of 5-lipoxygenase in human leucocytes stimulated by ionophore and arachidonic acid (5-HETE, LTB4); type: cell-based
T4 construct: human leucocytic lipoxygenase; endogenous in cells; host or cells: human (polynuclear) leucocytes
T4 sequence (P09917 1-674): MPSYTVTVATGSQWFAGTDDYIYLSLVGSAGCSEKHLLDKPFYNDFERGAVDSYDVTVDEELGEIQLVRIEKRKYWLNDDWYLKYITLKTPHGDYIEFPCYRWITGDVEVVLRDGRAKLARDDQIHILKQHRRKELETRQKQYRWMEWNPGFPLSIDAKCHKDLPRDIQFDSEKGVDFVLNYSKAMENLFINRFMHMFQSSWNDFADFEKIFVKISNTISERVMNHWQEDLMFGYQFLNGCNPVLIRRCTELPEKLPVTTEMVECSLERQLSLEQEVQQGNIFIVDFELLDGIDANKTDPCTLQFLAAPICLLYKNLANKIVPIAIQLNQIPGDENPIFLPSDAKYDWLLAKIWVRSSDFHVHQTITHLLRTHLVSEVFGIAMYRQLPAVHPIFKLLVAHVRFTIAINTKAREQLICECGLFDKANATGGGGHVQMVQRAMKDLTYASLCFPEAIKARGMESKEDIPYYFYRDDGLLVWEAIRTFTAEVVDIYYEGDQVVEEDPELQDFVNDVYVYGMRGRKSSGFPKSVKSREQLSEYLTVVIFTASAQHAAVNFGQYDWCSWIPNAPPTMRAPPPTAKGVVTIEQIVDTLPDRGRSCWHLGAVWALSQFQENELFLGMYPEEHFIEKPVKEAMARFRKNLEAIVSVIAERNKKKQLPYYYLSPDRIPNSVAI
Description: as §1, §2, §3, §4, §5, §6

HHT (human leucocytes) = assay: Experiment No. 2: HHT formation in human leucocytes stimulated by ionophore and arachidonic acid; type: cell-based; conditions: Leucocyte, ionophore A23187 and arachidonic acid
Description: as §1, §2, §3, §4, §5

[4] = biological target: T5, 12-lipoxygenase (human leucocytes) (Homo sapiens, UniProt P18054); assay: Experiment No. 2: inhibition of 12-lipoxygenase in human leucocytes stimulated by ionophore and arachidonic acid (12-HETE); type: cell-based; conditions: Experiment No. 2, 12-HETE, ionophore A23187 and arachidonic acid
T5 construct: human leucocytic lipoxygenase; endogenous in cells; host or cells: human (polynuclear) leucocytes
T5 sequence (P18054 1-663): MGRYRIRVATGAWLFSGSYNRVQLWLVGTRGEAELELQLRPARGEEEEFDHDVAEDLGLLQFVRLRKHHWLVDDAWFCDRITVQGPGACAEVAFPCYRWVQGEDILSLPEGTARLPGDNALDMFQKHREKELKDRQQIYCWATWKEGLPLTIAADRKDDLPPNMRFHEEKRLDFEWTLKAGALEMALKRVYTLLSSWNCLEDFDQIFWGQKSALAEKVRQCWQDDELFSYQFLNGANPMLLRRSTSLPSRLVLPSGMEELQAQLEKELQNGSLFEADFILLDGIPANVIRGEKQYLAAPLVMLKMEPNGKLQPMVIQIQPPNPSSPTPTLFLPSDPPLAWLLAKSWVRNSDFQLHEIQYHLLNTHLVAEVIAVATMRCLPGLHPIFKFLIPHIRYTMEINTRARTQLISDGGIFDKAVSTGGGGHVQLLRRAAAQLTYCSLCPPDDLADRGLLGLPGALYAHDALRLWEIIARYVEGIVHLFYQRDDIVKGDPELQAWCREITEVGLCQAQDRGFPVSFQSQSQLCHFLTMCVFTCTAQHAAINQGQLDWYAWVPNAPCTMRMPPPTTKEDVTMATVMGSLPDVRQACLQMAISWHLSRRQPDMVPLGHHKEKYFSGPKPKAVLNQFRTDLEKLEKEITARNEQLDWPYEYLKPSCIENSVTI
Description: as §1, §2, §3, §4, §5, §6

xanthine oxidase = xanthine oxidase (Bos taurus, UniProt P80457); assay: In vitro screening of compounds as potential inhibitors of xanthine oxidase; type: biochemical; conditions: xanthine oxidase 0.01 units/ml, xanthine 5.10^-5 M, pH 7.4
Text: A unit of activity was defined as a change of 0.001 units/minute.

[5] = Experiment No. 2, LTB4, ionophore A23187 and arachidonic acid, read-out: IC50 LTB4 (converted)

xanthine oxidase, sequence (P80457 whole entry): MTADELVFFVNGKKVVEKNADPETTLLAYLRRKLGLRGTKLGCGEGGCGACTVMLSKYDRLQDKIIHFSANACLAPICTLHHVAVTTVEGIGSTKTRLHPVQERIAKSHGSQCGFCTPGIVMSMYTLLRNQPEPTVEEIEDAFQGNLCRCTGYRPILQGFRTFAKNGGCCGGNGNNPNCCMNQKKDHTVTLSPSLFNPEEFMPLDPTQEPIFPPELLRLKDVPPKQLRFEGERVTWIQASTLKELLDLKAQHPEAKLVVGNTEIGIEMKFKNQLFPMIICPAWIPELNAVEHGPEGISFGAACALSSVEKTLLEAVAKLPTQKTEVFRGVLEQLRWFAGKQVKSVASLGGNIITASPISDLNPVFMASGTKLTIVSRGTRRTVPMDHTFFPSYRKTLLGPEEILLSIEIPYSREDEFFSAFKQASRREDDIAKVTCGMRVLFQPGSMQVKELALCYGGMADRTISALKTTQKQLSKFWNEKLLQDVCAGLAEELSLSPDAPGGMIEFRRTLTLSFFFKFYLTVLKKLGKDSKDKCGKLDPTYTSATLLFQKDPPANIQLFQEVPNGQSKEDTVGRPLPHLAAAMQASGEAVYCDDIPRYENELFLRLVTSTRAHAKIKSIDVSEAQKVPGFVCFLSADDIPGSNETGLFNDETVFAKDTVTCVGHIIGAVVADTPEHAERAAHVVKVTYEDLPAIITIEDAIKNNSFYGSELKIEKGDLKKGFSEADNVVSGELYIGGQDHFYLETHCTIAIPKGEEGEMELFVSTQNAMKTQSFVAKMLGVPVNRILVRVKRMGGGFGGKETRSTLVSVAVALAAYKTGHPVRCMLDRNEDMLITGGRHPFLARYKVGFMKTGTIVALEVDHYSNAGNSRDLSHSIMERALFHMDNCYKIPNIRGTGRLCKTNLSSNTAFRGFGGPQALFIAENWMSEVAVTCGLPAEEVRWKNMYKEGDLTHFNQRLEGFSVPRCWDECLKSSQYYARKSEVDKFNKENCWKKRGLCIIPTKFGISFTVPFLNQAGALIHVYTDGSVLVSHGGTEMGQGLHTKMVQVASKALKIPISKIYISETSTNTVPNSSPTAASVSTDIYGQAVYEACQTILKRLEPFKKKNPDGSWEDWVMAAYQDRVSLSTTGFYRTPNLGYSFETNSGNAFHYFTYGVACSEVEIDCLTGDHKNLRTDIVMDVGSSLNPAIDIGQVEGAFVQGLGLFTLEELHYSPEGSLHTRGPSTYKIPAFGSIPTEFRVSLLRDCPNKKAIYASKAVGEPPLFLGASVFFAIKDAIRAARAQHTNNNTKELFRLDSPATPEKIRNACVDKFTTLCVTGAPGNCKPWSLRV
T1 sequence (P23219 24-599): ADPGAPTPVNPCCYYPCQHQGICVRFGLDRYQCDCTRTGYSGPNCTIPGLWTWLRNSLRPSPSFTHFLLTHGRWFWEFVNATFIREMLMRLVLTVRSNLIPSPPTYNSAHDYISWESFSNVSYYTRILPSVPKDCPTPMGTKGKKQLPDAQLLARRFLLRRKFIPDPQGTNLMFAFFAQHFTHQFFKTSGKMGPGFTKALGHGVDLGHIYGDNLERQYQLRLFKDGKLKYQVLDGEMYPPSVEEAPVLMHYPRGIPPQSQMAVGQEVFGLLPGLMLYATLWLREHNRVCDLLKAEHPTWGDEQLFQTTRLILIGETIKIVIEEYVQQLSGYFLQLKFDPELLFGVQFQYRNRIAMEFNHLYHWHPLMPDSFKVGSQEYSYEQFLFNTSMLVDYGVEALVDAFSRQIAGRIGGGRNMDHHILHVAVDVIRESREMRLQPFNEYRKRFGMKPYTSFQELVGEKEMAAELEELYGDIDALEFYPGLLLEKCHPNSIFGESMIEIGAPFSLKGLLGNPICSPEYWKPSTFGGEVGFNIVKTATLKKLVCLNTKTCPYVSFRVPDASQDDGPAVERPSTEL

CC1CCC(C(C)C)C(Sc2ccc(O)c(O)c2)C1 (stereo not shown) [drawing 22]
IC50 [1]: 16.8 µM

N=C(N)Sc1ccc(O)c(O)c1
IC50 (concentration of 50% inhibition) (soybean lipoxygenase): Not active

Oc1ccc(S)cc1O [drawing 20]
IC50 [1]: 9.23 µM

CCC(C)CSc1ccc(O)c(O)c1 (stereo not shown) [drawing 33]
IC50 [2]: 10 µM
IC50 [3, 5]: 3 µM
IC50 (HHT (human leucocytes)): 50 µM
IC50 [4]: 10 µM

Oc1ccc(S)cc1O [drawing 32]
IC50 [2]: 50 µM
IC50 ([3]; Experiment No. 2, 5-HETE, ionophore A23187 and arachidonic acid, read-out: IC50 5-HETE): 1 µM
IC50 [3, 5]: 3 µM
IC50 (HHT (human leucocytes)): 20 µM

CCC(C)CSc1ccc(O)c(O)c1 (stereo not shown) [drawing 21]
IC50 [1]: 4.31 µM

CCC(C)CSc1ccc(O)c(O)c1 (stereo not shown) [drawing 28]
IC50 (xanthine oxidase): 511 µM

CCCCCCC(C)Sc1ccc(O)c(O)c1 (stereo not shown) [drawing 10]
IC50 (soybean lipoxygenase; IC50 (concentration of 50% inhibition)): 24.5 µM

Nc1nc2ncc(CNc3ccc(C(=O)N[C@@H](CCC(=O)O)C(=O)O)cc3)nc2c(=O)[nH]1 [Folic acid, reference compound]
IC50 (xanthine oxidase): 0.676 µM

CCCCCCC(C)Sc1ccc(O)c(O)c1 (stereo not shown) [drawing 29]
IC50 (xanthine oxidase): 557 µM
